Reference: paper PMC5876368, “Evaluation of a dimeric-cRGD peptide for targeted PET-CT imaging of peripheral angiogenesis in diabetic mice” (Scientific Reports, 2018)

Key:
[1] = Biodistribution and clearance in mice (gamma well counting and PET-CT); assay type: in vivo; settings: one hour after jugular vein injection, gamma well counting
Method: One week after occlusion, 5 groups of animals were injected with 6.81 ± 0.536 MBq of ^64Cu-NOTA-PEG4-cRGD2 via the jugular vein and at various time points (30 min n = 3, 1 hr n = 3, 2 hr n = 3, 4 hr n = 3, and 24 hr n = 2), different organs were excised and subjected to gamma well counting. The mass and radioactivity of tissue sections were assessed with a Voyager Pro. (Ohaus, USA) and Wizard2 gamma well counter (PerkinElmer, USA) respectively. The ^64Cu signal was then corrected to account for background radioactivity, radioactive decay of the samples, and tissue weight.
One week after occlusion, DM and non-DM mice (n = 15) were injected with 6.81 ± 0.536 MBq of ^64Cu-NOTA-PEG4-cRGD2 via the jugular vein and 60 minutes later in vivo microPET-CT imaging was performed using a small animal dedicated Inveon system (Siemens Healthcare USA). […]
Skeletal muscles from both the ischemic and non-ischemic hindlimbs were excised and separated into distal and proximal sections based on the location of the ligature in the ischemic limb and anatomical landmarks in the non-ischemic limb. The mass and radioactivity of tissue sections were assessed with a Voyager Pro. […] The ^64Cu signal was then corrected to account for background radioactivity, radioactive decay of the samples, and tissue weight.

αV β3 integrin = target: T1, αV β3 integrin (Mus musculus, UniProt O54890+P43406); assay: PET-CT imaging and gamma well counting of hindlimb uptake after femoral artery ligation, DM vs non-DM mice; assay type: in vivo; settings: mice 1 week after femoral artery ligation
T1 construct: from tissue; host or cells: hindlimb skeletal muscle of live C57BL/6 mice (ischemic and non-ischemic, DM and non-DM)
T1 sequence (P43406 31-885 limits assumed): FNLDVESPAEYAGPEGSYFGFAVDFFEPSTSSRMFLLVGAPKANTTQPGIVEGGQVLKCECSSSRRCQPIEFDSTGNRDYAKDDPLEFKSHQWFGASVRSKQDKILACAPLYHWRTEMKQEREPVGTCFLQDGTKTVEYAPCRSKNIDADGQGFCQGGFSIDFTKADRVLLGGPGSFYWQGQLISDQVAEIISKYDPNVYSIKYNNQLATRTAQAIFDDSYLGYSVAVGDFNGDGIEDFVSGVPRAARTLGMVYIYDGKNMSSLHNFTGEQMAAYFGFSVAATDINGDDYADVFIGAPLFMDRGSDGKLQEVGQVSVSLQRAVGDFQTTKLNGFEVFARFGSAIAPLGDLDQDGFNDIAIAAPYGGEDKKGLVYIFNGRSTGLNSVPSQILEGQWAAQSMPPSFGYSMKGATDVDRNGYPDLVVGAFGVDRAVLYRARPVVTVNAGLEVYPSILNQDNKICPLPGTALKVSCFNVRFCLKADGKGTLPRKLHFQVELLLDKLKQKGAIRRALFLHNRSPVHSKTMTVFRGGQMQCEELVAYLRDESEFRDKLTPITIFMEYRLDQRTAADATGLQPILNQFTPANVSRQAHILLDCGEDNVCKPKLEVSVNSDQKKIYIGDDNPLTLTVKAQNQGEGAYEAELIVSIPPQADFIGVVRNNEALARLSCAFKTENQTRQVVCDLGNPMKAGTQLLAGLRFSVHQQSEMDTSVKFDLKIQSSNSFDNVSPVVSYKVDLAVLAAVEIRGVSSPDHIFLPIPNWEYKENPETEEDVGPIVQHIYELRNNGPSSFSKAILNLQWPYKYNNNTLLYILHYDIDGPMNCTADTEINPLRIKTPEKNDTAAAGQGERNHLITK
T1 sequence (P43406 887-1044 partner limits assumed): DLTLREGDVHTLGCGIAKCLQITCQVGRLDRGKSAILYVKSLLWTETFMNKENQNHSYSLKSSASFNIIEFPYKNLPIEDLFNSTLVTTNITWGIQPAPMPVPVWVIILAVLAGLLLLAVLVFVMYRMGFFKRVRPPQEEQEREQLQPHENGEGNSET
T1 sequence (O54890 26-787): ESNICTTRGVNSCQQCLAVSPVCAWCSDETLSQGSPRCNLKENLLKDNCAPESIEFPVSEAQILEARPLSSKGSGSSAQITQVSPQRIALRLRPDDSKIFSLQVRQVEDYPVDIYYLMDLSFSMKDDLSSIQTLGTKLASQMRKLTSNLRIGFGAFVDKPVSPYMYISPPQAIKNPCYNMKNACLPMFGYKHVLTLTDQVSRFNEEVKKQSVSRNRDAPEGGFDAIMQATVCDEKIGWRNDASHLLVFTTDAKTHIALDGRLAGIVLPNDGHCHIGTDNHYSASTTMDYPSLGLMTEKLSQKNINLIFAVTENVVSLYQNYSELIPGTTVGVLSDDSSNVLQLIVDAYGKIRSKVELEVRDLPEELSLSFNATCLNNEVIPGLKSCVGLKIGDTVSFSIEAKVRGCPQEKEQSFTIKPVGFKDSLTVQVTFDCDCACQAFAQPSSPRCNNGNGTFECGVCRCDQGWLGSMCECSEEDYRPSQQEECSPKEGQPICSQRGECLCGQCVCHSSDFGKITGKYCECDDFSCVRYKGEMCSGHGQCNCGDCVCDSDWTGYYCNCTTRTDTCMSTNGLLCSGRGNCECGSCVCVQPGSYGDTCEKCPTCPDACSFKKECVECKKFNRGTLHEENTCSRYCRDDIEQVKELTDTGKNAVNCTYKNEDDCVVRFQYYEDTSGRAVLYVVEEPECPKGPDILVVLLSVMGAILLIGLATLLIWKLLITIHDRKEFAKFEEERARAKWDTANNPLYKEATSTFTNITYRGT
Method: All animals underwent hindlimb occlusion of the right femoral artery and a sham operation on the left hindlimb, following previously-described procedures. Briefly, a small incision was made on the right leg to expose the femoral vasculature, and dual ligation of the femoral artery was performed distal to the profundus branch to induce unilateral hindlimb ischemia. All mice were allowed to recover for 7 days after surgery.
One week after occlusion, DM and non-DM mice (n = 15) were injected with 6.81 ± 0.536 MBq of ^64Cu-NOTA-PEG4-cRGD2 via the jugular vein and 60 minutes later in vivo microPET-CT imaging was performed using a small animal dedicated Inveon system (Siemens Healthcare USA). An additional group of non-diabetic mice (n = 4) was injected with 7.21 ± 2.31 MBq of ^64Cu-acetate to study differential organ biodistribution of ^64Cu-NOTA-PEG4-cRGD2. […]
The microPET and microCT images were reconstructed using the OSEM/3D algorithm (Siemens Healthcare USA) and the cone-beam technique (Cobra Exim), respectively. MicroPET images were fused with microCT images and quantified using a semiautomated approach developed and evaluated previously. […] To validate the accuracy of the quantitative targeted imaging approach, image-derived results were compared with the gamma well counting analysis of the corresponding tissue samples. […]

CC(=O)[O-].CC(=O)[O-].[64Cu+2] [^64Cu-acetate]
organ uptake in liver, gallbladder, kidneys and intestines [1]: > 20 %I.D./g | retention in ischemic relative to non-ischemic hindlimb (αV β3 integrin): comparable accumulation in both limbs
